Data taken from ChEMBL document CHEMBL1201862, “PubChem BioAssay data set” (2004).
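Each compound was tested at five concentrations against cells in 96-well plates for 48 hours. GI50 is the concentration that inhibits growth by half.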 Active and inactive are the calls of the source. Cut-off read from the data, not from the text of the source: active = GI50 up to about 1.1 µM and inactive = higher.

Legend:
Experiment in all cases: inhibition of tumour cell growth, NCI panel, 48 h
786-0 = system: 786-0
A498 = system: A498
A549 = system: A549
ACHN = system: ACHN
CAKI-1 = system: CAKI-1
CCRF-CEM = system: CCRF-CEM
COLO 205 = system: COLO 205
DLD-1 = system: DLD-1
DMS-114 = system: DMS-114
DMS-273 = system: DMS-273
EKVX = system: EKVX
HCC 2998 = system: HCC 2998
HCT-116 = system: HCT-116
HCT-15 = system: HCT-15
HL-60 = system: HL-60
HOP-18 = system: HOP-18
HOP-62 = system: HOP-62
HT-29 = system: HT-29
IGROV-1 = system: IGROV-1
K562 = system: K562
KM-20L2 = system: KM-20L2
KM12 = system: KM12
LOX IMVI = system: LOX IMVI
LXFL 529 = system: LXFL 529
M14 = system: M14
M19-MEL = system: M19-MEL
MOLT-4 = system: MOLT-4
Malme-3M = system: Malme-3M
NCI-H226 = system: NCI-H226
NCI-H460 = system: NCI-H460
NCI-H522 = system: NCI-H522
OVCAR-3 = system: OVCAR-3
OVCAR-4 = system: OVCAR-4
OVCAR-8 = system: OVCAR-8
RPMI-8226 = system: RPMI-8226
RXF 393 = system: RXF 393
SF-268 = system: SF-268
SF-295 = system: SF-295
SF-539 = system: SF-539
SK-MEL-28 = system: SK-MEL-28
SK-MEL-2 = system: SK-MEL-2
SK-MEL-5 = system: SK-MEL-5
SK-OV-3 = system: SK-OV-3
SN12C = system: SN12C
SNB-19 = system: SNB-19
SNB-75 = system: SNB-75
SNB-78 = system: SNB-78
SW-620 = system: SW-620
U-251 = system: U-251
UACC-257 = system: UACC-257
UACC-62 = system: UACC-62
UO-31 = system: UO-31
HOP-92 = system: HOP-92
NCI-H23 = system: NCI-H23
OVCAR-5 = system: OVCAR-5
TK-10 = system: TK-10
XF498 = system: XF498
SR = system: SR

Measured: GI50

CCOC(=O)NC(=O)c1cn(CCCCCOC(=O)NCCCCCCNC(=O)OCCCCCn2cc(C(=O)NC(=O)OCC)c(=O)[nH]c2=O)c(=O)[nH]c1=O
inactive: 786-0 > 100 µM | A498 > 100 µM | A549 > 100 µM | ACHN > 100 µM | CAKI-1 > 100 µM | CCRF-CEM > 100 µM | COLO 205 > 100 µM | DLD-1 > 100 µM | DMS-114 > 100 µM | DMS-273 > 100 µM | EKVX > 100 µM | HCC 2998 > 100 µM | HCT-116 > 100 µM | HL-60 > 100 µM | HOP-18 > 100 µM | HOP-62 > 100 µM | HT-29 > 100 µM | IGROV-1 > 100 µM | K562 > 100 µM | KM-20L2 > 100 µM | KM12 > 100 µM | LOX IMVI > 100 µM | LXFL 529 > 100 µM | M14 31 µM | M19-MEL > 100 µM | MOLT-4 > 100 µM | Malme-3M > 100 µM | NCI-H226 > 100 µM | NCI-H460 > 100 µM | NCI-H522 > 100 µM | OVCAR-3 > 100 µM | OVCAR-4 > 100 µM | OVCAR-8 > 100 µM | RPMI-8226 > 100 µM | RXF 393 > 100 µM | SF-268 > 100 µM | SF-295 > 100 µM | SF-539 > 100 µM | SK-MEL-28 > 100 µM | SK-MEL-2 > 100 µM | SK-MEL-5 > 100 µM | SK-OV-3 > 100 µM | SN12C > 100 µM | SNB-19 > 100 µM | SNB-75 > 100 µM | SNB-78 > 100 µM | SW-620 > 100 µM | U-251 > 100 µM | UACC-257 > 100 µM | UACC-62 > 100 µM | UO-31 > 100 µM
> 100 µM: HCT-15

Cc1cc2c(c(C(N)=O)c1C)-c1cccc(F)c1C2=O
inactive: 786-0 > 100 µM | A498 45.5 µM | A549 > 100 µM | ACHN > 100 µM | CCRF-CEM > 100 µM | COLO 205 > 100 µM | DLD-1 > 100 µM | DMS-114 > 100 µM | DMS-273 > 100 µM | EKVX > 100 µM | HCC 2998 > 100 µM | HCT-116 80.2 µM | HOP-62 > 100 µM | HOP-92 > 100 µM | HT-29 > 100 µM | IGROV-1 > 100 µM | K562 > 100 µM | KM-20L2 > 100 µM | KM12 > 100 µM | LOX IMVI > 100 µM | LXFL 529 > 100 µM | M14 > 100 µM | M19-MEL > 100 µM | MOLT-4 > 100 µM | Malme-3M > 100 µM | NCI-H23 > 100 µM | NCI-H460 > 100 µM | NCI-H522 41.2 µM | OVCAR-3 > 100 µM | OVCAR-4 > 100 µM | OVCAR-5 > 100 µM | OVCAR-8 > 100 µM | RPMI-8226 > 100 µM | SF-268 > 100 µM | SF-295 > 100 µM | SF-539 > 100 µM | SK-MEL-28 > 100 µM | SK-MEL-2 > 100 µM | SK-MEL-5 > 100 µM | SK-OV-3 > 100 µM | SN12C > 100 µM | SNB-19 > 100 µM | SNB-75 30.3 µM | SNB-78 > 100 µM | SW-620 > 100 µM | TK-10 > 100 µM | U-251 > 100 µM | UACC-257 > 100 µM | UACC-62 79.6 µM | UO-31 40.9 µM | XF498 57.3 µM
> 100 µM: HCT-15

O=C1Cc2nc(CO)c(CO)c(CO)c2CO1
> 100 µM: HCT-15
inactive: 786-0 > 100 µM | A498 > 100 µM | A549 > 100 µM | ACHN > 100 µM | CAKI-1 > 100 µM | CCRF-CEM > 100 µM | COLO 205 > 100 µM | DLD-1 > 100 µM | DMS-114 > 100 µM | DMS-273 > 100 µM | EKVX > 100 µM | HCC 2998 > 100 µM | HCT-116 > 100 µM | HL-60 > 100 µM | HOP-18 > 100 µM | HOP-62 > 100 µM | HOP-92 > 100 µM | HT-29 > 100 µM | IGROV-1 > 100 µM | K562 > 100 µM | KM-20L2 > 100 µM | KM12 > 100 µM | LOX IMVI > 100 µM | LXFL 529 > 100 µM | M14 > 100 µM | M19-MEL > 100 µM | Malme-3M > 100 µM | NCI-H23 > 100 µM | NCI-H460 > 100 µM | NCI-H522 > 100 µM | OVCAR-3 > 100 µM | OVCAR-5 > 100 µM | OVCAR-8 > 100 µM | RPMI-8226 > 100 µM | SF-268 > 100 µM | SF-295 > 100 µM | SF-539 > 100 µM | SK-MEL-28 > 100 µM | SK-MEL-2 > 100 µM | SK-MEL-5 > 100 µM | SK-OV-3 > 100 µM | SN12C > 100 µM | SNB-19 > 100 µM | SNB-75 > 100 µM | SNB-78 > 100 µM | SW-620 > 100 µM | TK-10 > 100 µM | U-251 > 100 µM | UACC-257 > 100 µM | UACC-62 > 100 µM | UO-31 > 100 µM

CC1c2c(Cl)nc3ccccc3c2Oc2c1c(Cl)nc1ccccc21
inactive: 786-0 49.1 µM | A498 > 100 µM | A549 68.4 µM | ACHN 51.5 µM | CCRF-CEM > 100 µM | COLO 205 > 100 µM | DLD-1 > 100 µM | DMS-114 66.1 µM | DMS-273 53.2 µM | EKVX 37.6 µM | HCC 2998 > 100 µM | HCT-116 74.6 µM | HL-60 29.6 µM | HOP-18 7.21 µM | HOP-62 > 100 µM | HOP-92 46.5 µM | HT-29 82.8 µM | IGROV-1 > 100 µM | K562 46.8 µM | KM-20L2 > 100 µM | KM12 > 100 µM | LOX IMVI > 100 µM | LXFL 529 53.5 µM | M19-MEL > 100 µM | MOLT-4 31.2 µM | Malme-3M > 100 µM | NCI-H23 > 100 µM | NCI-H460 > 100 µM | NCI-H522 43.8 µM | OVCAR-3 81.8 µM | OVCAR-5 > 100 µM | OVCAR-8 85.7 µM | RPMI-8226 32.8 µM | RXF 393 41.3 µM | SF-268 > 100 µM | SF-295 67.3 µM | SF-539 > 100 µM | SK-MEL-28 > 100 µM | SK-MEL-2 64.6 µM | SK-MEL-5 30.3 µM | SK-OV-3 > 100 µM | SNB-19 > 100 µM | SNB-75 56 µM | SNB-78 > 100 µM | SW-620 99.5 µM | TK-10 47.3 µM | U-251 61.9 µM | UACC-257 > 100 µM | UO-31 65 µM

COP1(=O)Oc2ccccc2C(=O)C(C(F)(F)F)(C(F)(F)F)O1 (stereo not drawn)
> 100 µM: HCT-15
inactive: 786-0 > 100 µM | A498 > 100 µM | A549 > 100 µM | ACHN > 100 µM | CAKI-1 50.6 µM | CCRF-CEM > 100 µM | COLO 205 > 100 µM | DLD-1 > 100 µM | DMS-114 > 100 µM | DMS-273 > 100 µM | EKVX > 100 µM | HCT-116 > 100 µM | HL-60 > 100 µM | HOP-62 > 100 µM | HOP-92 56.8 µM | HT-29 > 100 µM | IGROV-1 > 100 µM | K562 > 100 µM | KM-20L2 > 100 µM | KM12 > 100 µM | LOX IMVI > 100 µM | LXFL 529 > 100 µM | M14 > 100 µM | M19-MEL > 100 µM | MOLT-4 > 100 µM | NCI-H23 > 100 µM | NCI-H460 > 100 µM | NCI-H522 > 100 µM | OVCAR-4 > 100 µM | OVCAR-5 > 100 µM | OVCAR-8 > 100 µM | RPMI-8226 42.9 µM | RXF 393 > 100 µM | SF-268 > 100 µM | SF-295 > 100 µM | SF-539 > 100 µM | SK-MEL-28 > 100 µM | SK-MEL-2 > 100 µM | SK-MEL-5 > 100 µM | SK-OV-3 > 100 µM | SN12C > 100 µM | SNB-19 > 100 µM | SNB-75 > 100 µM | SR > 100 µM | SW-620 > 100 µM | TK-10 > 100 µM | U-251 > 100 µM | UACC-257 > 100 µM | UACC-62 > 100 µM | UO-31 > 100 µM | XF498 85.9 µM
active: HCC 2998 0.577 µM
